For one assay, the target named is T1, human Kv1.3 (CHO) (Homo sapiens, UniProt P22001).
T1 construct: expressed in transfected cells; host or cells: CHO
In words: cell-based.

The next assay concerns the target T2, human Kv1.1 (HEK293) (Homo sapiens, UniProt Q09470).
T2 construct: expressed in transfected cells; host or cells: HEK293
In words: cell-based.

Among the data in patent US20090299044A1 (priority 2006, published 2009) are IC50 values, retold here.

Bridge positions count the residues as written; N and C are the ends. Square brackets hold non-standard residues; d marks the D form. Peptide text beside a SMILES is read from it. 1Nal = N[C@@H](Cc1cccc2ccccc12)C(=O)O Some results are limits rather than exact numbers.

One may read the IC50 as the concentration needed to halve the response being measured. Higher therefore signals weaker potency.

T1 sequence (P22001 whole entry): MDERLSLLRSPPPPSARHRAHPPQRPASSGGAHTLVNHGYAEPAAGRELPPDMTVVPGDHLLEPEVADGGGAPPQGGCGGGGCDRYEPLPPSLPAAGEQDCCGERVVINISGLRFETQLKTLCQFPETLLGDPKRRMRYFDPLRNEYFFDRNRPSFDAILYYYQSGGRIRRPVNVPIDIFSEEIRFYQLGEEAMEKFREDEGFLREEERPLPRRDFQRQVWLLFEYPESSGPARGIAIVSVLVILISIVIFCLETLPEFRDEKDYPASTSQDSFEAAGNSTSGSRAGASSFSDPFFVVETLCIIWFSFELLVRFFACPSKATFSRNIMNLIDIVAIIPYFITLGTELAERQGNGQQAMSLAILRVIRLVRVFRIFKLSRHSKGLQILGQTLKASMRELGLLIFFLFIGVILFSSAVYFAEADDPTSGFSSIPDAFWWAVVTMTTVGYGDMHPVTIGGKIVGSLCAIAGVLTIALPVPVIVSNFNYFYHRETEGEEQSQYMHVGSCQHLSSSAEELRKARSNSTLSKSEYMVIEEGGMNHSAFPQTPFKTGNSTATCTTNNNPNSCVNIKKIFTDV
T2 sequence (Q09470 whole entry): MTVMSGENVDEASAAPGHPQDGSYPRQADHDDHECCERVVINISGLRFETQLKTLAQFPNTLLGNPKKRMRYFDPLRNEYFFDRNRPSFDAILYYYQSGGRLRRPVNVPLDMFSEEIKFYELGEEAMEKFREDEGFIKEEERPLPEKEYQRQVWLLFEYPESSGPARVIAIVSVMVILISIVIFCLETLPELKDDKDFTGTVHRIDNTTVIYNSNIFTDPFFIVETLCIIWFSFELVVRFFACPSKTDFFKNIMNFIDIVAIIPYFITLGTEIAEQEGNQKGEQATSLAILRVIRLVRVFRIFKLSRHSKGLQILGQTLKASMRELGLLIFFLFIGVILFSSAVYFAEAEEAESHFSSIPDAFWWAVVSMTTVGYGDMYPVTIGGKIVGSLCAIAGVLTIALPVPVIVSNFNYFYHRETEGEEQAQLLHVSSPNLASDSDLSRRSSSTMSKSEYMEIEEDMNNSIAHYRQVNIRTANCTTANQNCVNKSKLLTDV

For the compound `CC[C@H](C)[C@@H]1NC(=O)[C@H](CCCCN)NC(=O)[C@@H](NC(=O)[C@H](CCCCN)NC(=O)[C@@H](NC(=O)[C@H](CC(N)=O)NC(=O)[C@H](CCC(=O)O)NC(=O)[C@@H](NC(=O)[C@@H](NC(=O)CN)C(C)C)[C@@H](C)CC)C(C)C)CSSC[C@@H]2NC(=O)[C@H](CCCCN)NC(=O)CNC(=O)[C@H](Cc3ccccc3)NC(=O)[C@H](CCCNC(=N)N)NC(=O)[C@H](CCSC)NC(=O)CNC(=O)[C@H](C)NC(=O)[C@H](CCCCN)NC(=O)[C@H](CCCCN)NC(=O)[C@@H]3CSSC[C@@H](C(=O)N[C@H](C(=O)N4CCC[C@H]4C(=O)N[C@@H](CCCCN)C(=O)O)[C@@H](C)O)NC(=O)[C@H](Cc4c[nH]cn4)NC(=O)[C@H](CSSC[C@H](NC(=O)[C@H](CCC(N)=O)NC(=O)[C@H](CCCNC(=N)N)NC(=O)[C@H](CO)NC1=O)C(=O)N[C@@H](CC(C)C)C(=O)N[C@@H](CCC(=O)O)C(=O)N1CCC[C@H]1C(=O)N3)NC(=O)[C@H](CCCCN)NC(=O)CNC(=O)[C@H](CC(N)=O)NC(=O)[C@H](CCSC)NC2=O` [I4E] (H-GVIENVKCKISRQCLEPCKKAGMRFGKCMNGKCHCTPK-OH; disulfide 8-28, 14-33, 18-35), the IC50 is 0.0157 nM against human Kv1.3 (CHO) and 0.00319 nM against human Kv1.1 (HEK293).
In the same order, the values of `CC[C@H](C)[C@@H]1NC(=O)[C@H](CCCCN)NC(=O)[C@@H](NC(=O)[C@H](CCCCN)NC(=O)[C@@H](NC(=O)[C@H](CC(N)=O)NC(=O)[C@H](Cc2cccc3ccccc23)NC(=O)[C@@H](NC(=O)[C@@H](NC(=O)CN)C(C)C)[C@@H](C)CC)C(C)C)CSSC[C@@H]2NC(=O)[C@H](CCCCN)NC(=O)CNC(=O)[C@H](Cc3ccccc3)NC(=O)[C@H](CCCNC(=N)N)NC(=O)[C@H](CCSC)NC(=O)CNC(=O)[C@H](C)NC(=O)[C@H](CCCCN)NC(=O)[C@H](CCCCN)NC(=O)[C@@H]3CSSC[C@@H](C(=O)N[C@H](C(=O)N4CCC[C@H]4C(=O)N[C@@H](CCCCN)C(=O)O)[C@@H](C)O)NC(=O)[C@H](Cc4c[nH]cn4)NC(=O)[C@H](CSSC[C@H](NC(=O)[C@H](CCC(N)=O)NC(=O)[C@H](CCCNC(=N)N)NC(=O)[C@H](CO)NC1=O)C(=O)N[C@@H](CC(C)C)C(=O)N[C@@H](CCC(=O)O)C(=O)N1CCC[C@H]1C(=O)N3)NC(=O)[C@H](CCCCN)NC(=O)CNC(=O)[C@H](CC(N)=O)NC(=O)[C@H](CCSC)NC2=O` [I4Nal] (H-GVI[1Nal]NVKCKISRQCLEPCKKAGMRFGKCMNGKCHCTPK-OH; disulfide 8-28, 14-33, 18-35) are 0.015 nM and less than 0.00152 nM.
In the same order, the values of `CC[C@H](C)[C@@H]1NC(=O)[C@H](CCCCN)NC(=O)[C@@H](NC(=O)[C@H](CCCCN)NC(=O)[C@@H](NC(=O)[C@H](CC(N)=O)NC(=O)[C@H](CCCNC(=N)N)NC(=O)[C@@H](NC(=O)[C@@H](NC(=O)CN)C(C)C)[C@@H](C)CC)C(C)C)CSSC[C@@H]2NC(=O)[C@H](CCCCN)NC(=O)CNC(=O)[C@H](Cc3ccccc3)NC(=O)[C@H](CCCNC(=N)N)NC(=O)[C@H](CCSC)NC(=O)CNC(=O)[C@H](C)NC(=O)[C@H](CCCCN)NC(=O)[C@H](CCCCN)NC(=O)[C@@H]3CSSC[C@@H](C(=O)N[C@H](C(=O)N4CCC[C@H]4C(=O)N[C@@H](CCCCN)C(=O)O)[C@@H](C)O)NC(=O)[C@H](Cc4c[nH]cn4)NC(=O)[C@H](CSSC[C@H](NC(=O)[C@H](CCC(N)=O)NC(=O)[C@H](CCCNC(=N)N)NC(=O)[C@H](CO)NC1=O)C(=O)N[C@@H](CC(C)C)C(=O)N[C@@H](CCC(=O)O)C(=O)N1CCC[C@H]1C(=O)N3)NC(=O)[C@H](CCCCN)NC(=O)CNC(=O)[C@H](CC(N)=O)NC(=O)[C@H](CCSC)NC2=O` [I4R] (H-GVIRNVKCKISRQCLEPCKKAGMRFGKCMNGKCHCTPK-OH; disulfide 8-28, 14-33, 18-35) are 0.0104 nM and 0.00192 nM.
For `CC[C@H](C)[C@H](NC(=O)[C@@H](NC(=O)CN)C(C)C)C(=O)N[C@H](C(=O)N[C@@H](CC(N)=O)C(=O)N[C@H](C(=O)N[C@@H](CCCCN)C(=O)N[C@H]1CSSC[C@@H]2NC(=O)[C@H](CCCCN)NC(=O)CNC(=O)[C@H](Cc3ccccc3)NC(=O)[C@H](CCCNC(=N)N)NC(=O)[C@H](CCSC)NC(=O)CNC(=O)[C@H](C)NC(=O)[C@H](CCCCN)NC(=O)[C@H](CCCCN)NC(=O)[C@@H]3CSSC[C@@H](C(=O)N[C@H](C(=O)N4CCC[C@H]4C(=O)N[C@@H](CCCCN)C(=O)O)[C@@H](C)O)NC(=O)[C@H](Cc4c[nH]cn4)NC(=O)[C@H](CSSC[C@H](NC(=O)[C@H](CCC(N)=O)NC(=O)[C@H](CCCNC(=N)N)NC(=O)[C@H](CO)NC(=O)[C@H](C)NC(=O)[C@H](CCCCN)NC1=O)C(=O)N[C@@H](CC(C)C)C(=O)N[C@@H](CCC(=O)O)C(=O)N1CCC[C@H]1C(=O)N3)NC(=O)[C@H](CCCCN)NC(=O)CNC(=O)[C@H](CC(N)=O)NC(=O)[C@H](CCSC)NC2=O)C(C)C)[C@@H](C)CC` [I10A] (H-GVIINVKCKASRQCLEPCKKAGMRFGKCMNGKCHCTPK-OH; disulfide 8-28, 14-33, 18-35), in that order: 0.0912 nM and 0.00446 nM.
Consider `CC[C@H](C)[C@H](NC(=O)[C@@H](NC(=O)CN)C(C)C)C(=O)N[C@H](C(=O)N[C@@H](CC(N)=O)C(=O)N[C@H](C(=O)N[C@@H](CCCCN)C(=O)N[C@H]1CSSC[C@@H]2NC(=O)[C@H](CCCCN)NC(=O)CNC(=O)[C@H](Cc3ccccc3)NC(=O)[C@H](CCCNC(=N)N)NC(=O)[C@H](CCSC)NC(=O)CNC(=O)[C@H](C)NC(=O)[C@H](CCCCN)NC(=O)[C@H](CCCCN)NC(=O)[C@@H]3CSSC[C@@H](C(=O)N[C@H](C(=O)N4CCC[C@H]4C(=O)N[C@@H](CCCCN)C(=O)O)[C@@H](C)O)NC(=O)[C@H](Cc4c[nH]cn4)NC(=O)[C@H](CSSC[C@H](NC(=O)[C@H](CCC(N)=O)NC(=O)[C@H](CCCNC(=N)N)NC(=O)[C@H](CO)NC(=O)[C@H](CCC(=O)O)NC(=O)[C@H](CCCCN)NC1=O)C(=O)N[C@@H](CC(C)C)C(=O)N[C@@H](CCC(=O)O)C(=O)N1CCC[C@H]1C(=O)N3)NC(=O)[C@H](CCCCN)NC(=O)CNC(=O)[C@H](CC(N)=O)NC(=O)[C@H](CCSC)NC2=O)C(C)C)[C@@H](C)CC` [I10E] (H-GVIINVKCKESRQCLEPCKKAGMRFGKCMNGKCHCTPK-OH; disulfide 8-28, 14-33, 18-35), for which the IC50 at human Kv1.3 (CHO) is 0.12 nM; on human Kv1.1 (HEK293), 0.0335 nM.
As for `CC[C@H](C)[C@H](NC(=O)[C@@H](NC(=O)CN)C(C)C)C(=O)N[C@H](C(=O)N[C@@H](CC(N)=O)C(=O)N[C@H](C(=O)N[C@@H](CCCCN)C(=O)N[C@H]1CSSC[C@@H]2NC(=O)[C@H](CCCCN)NC(=O)CNC(=O)[C@H](Cc3ccccc3)NC(=O)[C@H](CCCNC(=N)N)NC(=O)[C@H](CCSC)NC(=O)CNC(=O)[C@H](C)NC(=O)[C@H](CCCCN)NC(=O)[C@H](CCCCN)NC(=O)[C@@H]3CSSC[C@@H](C(=O)N[C@H](C(=O)N4CCC[C@H]4C(=O)N[C@@H](CCCCN)C(=O)O)[C@@H](C)O)NC(=O)[C@H](Cc4c[nH]cn4)NC(=O)[C@H](CSSC[C@H](NC(=O)[C@H](CCC(N)=O)NC(=O)[C@H](CCCNC(=N)N)NC(=O)[C@H](CO)NC(=O)[C@H](CCCNC(=N)N)NC(=O)[C@H](CCCCN)NC1=O)C(=O)N[C@@H](CC(C)C)C(=O)N[C@@H](CCC(=O)O)C(=O)N1CCC[C@H]1C(=O)N3)NC(=O)[C@H](CCCCN)NC(=O)CNC(=O)[C@H](CC(N)=O)NC(=O)[C@H](CCSC)NC2=O)C(C)C)[C@@H](C)CC` [I10R] (H-GVIINVKCKRSRQCLEPCKKAGMRFGKCMNGKCHCTPK-OH; disulfide 8-28, 14-33, 18-35), the IC50 is 0.0117 nM against human Kv1.3 (CHO) and 0.00173 nM at human Kv1.1 (HEK293).
For `CC[C@H](C)[C@@H]1NC(=O)[C@H](CCCCN)NC(=O)[C@@H](NC(=O)[C@H](C)NC(=O)[C@@H](NC(=O)[C@H](CC(N)=O)NC(=O)[C@@H](NC(=O)[C@@H](NC(=O)[C@@H](NC(=O)CN)C(C)C)[C@@H](C)CC)[C@@H](C)CC)C(C)C)CSSC[C@@H]2NC(=O)[C@H](CCCCN)NC(=O)CNC(=O)[C@H](Cc3ccccc3)NC(=O)[C@H](CCCNC(=N)N)NC(=O)[C@H](CCSC)NC(=O)CNC(=O)[C@H](C)NC(=O)[C@H](CCCCN)NC(=O)[C@H](CCCCN)NC(=O)[C@@H]3CSSC[C@@H](C(=O)N[C@H](C(=O)N4CCC[C@H]4C(=O)N[C@@H](CCCCN)C(=O)O)[C@@H](C)O)NC(=O)[C@H](Cc4c[nH]cn4)NC(=O)[C@H](CSSC[C@H](NC(=O)[C@H](CCC(N)=O)NC(=O)[C@H](CCCNC(=N)N)NC(=O)[C@H](CO)NC1=O)C(=O)N[C@@H](CC(C)C)C(=O)N[C@@H](CCC(=O)O)C(=O)N1CCC[C@H]1C(=O)N3)NC(=O)[C@H](CCCCN)NC(=O)CNC(=O)[C@H](CC(N)=O)NC(=O)[C@H](CCSC)NC2=O` [K7A] (H-GVIINVACKISRQCLEPCKKAGMRFGKCMNGKCHCTPK-OH; disulfide 8-28, 14-33, 18-35), in that order: 0.181 nM and 0.0219 nM.
For `CC[C@H](C)[C@@H]1NC(=O)[C@H](CCCCN)NC(=O)[C@@H](NC(=O)[C@H](CCC(=O)O)NC(=O)[C@@H](NC(=O)[C@H](CC(N)=O)NC(=O)[C@@H](NC(=O)[C@@H](NC(=O)[C@@H](NC(=O)CN)C(C)C)[C@@H](C)CC)[C@@H](C)CC)C(C)C)CSSC[C@@H]2NC(=O)[C@H](CCCCN)NC(=O)CNC(=O)[C@H](Cc3ccccc3)NC(=O)[C@H](CCCNC(=N)N)NC(=O)[C@H](CCSC)NC(=O)CNC(=O)[C@H](C)NC(=O)[C@H](CCCCN)NC(=O)[C@H](CCCCN)NC(=O)[C@@H]3CSSC[C@@H](C(=O)N[C@H](C(=O)N4CCC[C@H]4C(=O)N[C@@H](CCCCN)C(=O)O)[C@@H](C)O)NC(=O)[C@H](Cc4c[nH]cn4)NC(=O)[C@H](CSSC[C@H](NC(=O)[C@H](CCC(N)=O)NC(=O)[C@H](CCCNC(=N)N)NC(=O)[C@H](CO)NC1=O)C(=O)N[C@@H](CC(C)C)C(=O)N[C@@H](CCC(=O)O)C(=O)N1CCC[C@H]1C(=O)N3)NC(=O)[C@H](CCCCN)NC(=O)CNC(=O)[C@H](CC(N)=O)NC(=O)[C@H](CCSC)NC2=O` [K7E] (H-GVIINVECKISRQCLEPCKKAGMRFGKCMNGKCHCTPK-OH; disulfide 8-28, 14-33, 18-35), in that order: 0.0142 nM and less than 0.00152 nM.
